Measured values published in PMC7562955 (Nature Communications, 2020).

Target: T1, TLR7 (Homo sapiens, UniProt Q9NYK1)
T1 sequence (Q9NYK1 27-1049): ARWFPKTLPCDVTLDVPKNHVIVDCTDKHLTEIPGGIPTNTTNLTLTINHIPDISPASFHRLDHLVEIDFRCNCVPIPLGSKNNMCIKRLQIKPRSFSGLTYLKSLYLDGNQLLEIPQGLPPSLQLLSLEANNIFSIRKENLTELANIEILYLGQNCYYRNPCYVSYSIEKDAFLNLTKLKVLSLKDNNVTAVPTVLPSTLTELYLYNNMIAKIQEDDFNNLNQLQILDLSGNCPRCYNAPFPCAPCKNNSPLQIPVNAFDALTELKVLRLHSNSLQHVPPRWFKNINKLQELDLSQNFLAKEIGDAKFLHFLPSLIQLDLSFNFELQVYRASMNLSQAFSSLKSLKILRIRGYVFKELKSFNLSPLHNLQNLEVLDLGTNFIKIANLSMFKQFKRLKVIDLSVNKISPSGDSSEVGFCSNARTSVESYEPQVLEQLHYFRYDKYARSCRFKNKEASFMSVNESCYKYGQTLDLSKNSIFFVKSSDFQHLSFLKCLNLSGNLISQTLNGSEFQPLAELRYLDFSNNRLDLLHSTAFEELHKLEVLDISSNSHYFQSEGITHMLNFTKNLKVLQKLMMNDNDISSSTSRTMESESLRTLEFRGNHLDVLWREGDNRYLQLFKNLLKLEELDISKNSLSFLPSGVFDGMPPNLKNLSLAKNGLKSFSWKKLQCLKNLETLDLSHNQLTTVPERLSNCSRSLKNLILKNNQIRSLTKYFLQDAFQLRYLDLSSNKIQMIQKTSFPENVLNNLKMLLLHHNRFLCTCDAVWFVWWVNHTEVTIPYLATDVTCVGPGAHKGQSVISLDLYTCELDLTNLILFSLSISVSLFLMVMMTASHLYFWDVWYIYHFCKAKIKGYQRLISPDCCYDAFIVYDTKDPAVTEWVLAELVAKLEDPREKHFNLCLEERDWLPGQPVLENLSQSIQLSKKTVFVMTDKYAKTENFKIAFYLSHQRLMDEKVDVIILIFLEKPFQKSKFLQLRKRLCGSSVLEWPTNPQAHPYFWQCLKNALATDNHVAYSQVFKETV
Test: Dose-response relationship between antagonist and R848, human TLR7 reporter gene assay
Assay type: cell-based
Design: host or cells: HEK293 (TLR7/NF-κB/SEAPorter)
Protocol: Compounds were dissolved in dimethyl sulfoxide. Human TLR7 reporter cell line (Novus Biological) were seeded in 96-well microtiter plate (AGC techno glass) at 5 × 10^4 cells/well in DMEM (GIBCO) with 10% fetal bovine serum (GIBCO), and 10 μg ml^−1 Blastcidin S HCl (GIBCO) and incubated at 37 °C in 5% CO2. The plates were incubated over-night and then addition with various concentrations of compound. After 30 min, R848 (human TLR7/8 ligand) that was diluted with the medium was added, wherein final concentration was adjusted to 0.01, 0.03, 0.1, 0.3, 1, 3, 10, 30, 100, 300 and 1000 μM. The plates were then incubated an additional 20 ± 1 h at 37 °C in 5% CO2, and then the SEAP activity was measured as activation of human TLR7. The SEAP activity was evaluated as follows: pNPP (Invitrogen) was added to the incubated sample (50 μl/well); after 15 min, 4 mol l^−1 sodium hydroxide solution (nacalai tesque) was added thereto (50 μl/well) to quench the reaction; and the absorbance of each sample was measured at 405 nm with microplate reader SpectraMax M4 (Molecular Devices).

Compound: CCOc1nc(N)c2nc(-c3cncc(F)c3)n(Cc3ccc(CN4C[C@@H]5C[C@H]4CN5C)cc3)c2n1 [Cpd-6]
- mode of action against R848: acted as antagonists
- TLR7 reporter signal (Cpd-6 0.001 µM, log10[R848 (µM)] 0): 12.4492
- TLR7 reporter signal (Cpd-6 0.001 µM, log10[R848 (µM)] 0.477121): 42.5203
- TLR7 reporter signal (Cpd-6 0.001 µM, log10[R848 (µM)] 1): 87.7267
- TLR7 reporter signal (Cpd-6 0.001 µM, log10[R848 (µM)] 1.47712): 99.7073
- TLR7 reporter signal (Cpd-6 0.001 µM, log10[R848 (µM)] 2): 100.849
- TLR7 reporter signal (Cpd-6 0.001 µM, log10[R848 (µM)] 2.47712): 102.716
- TLR7 reporter signal (Cpd-6 0.001 µM, log10[R848 (µM)] 3): 99.4752
- TLR7 reporter signal (Cpd-6 0.001 µM, log10[R848 (µM)] -0.522879): 1.192
- TLR7 reporter signal (Cpd-6 0.001 µM, log10[R848 (µM)] -1): 0.7791
- TLR7 reporter signal (Cpd-6 0.001 µM, log10[R848 (µM)] -1.52288): 0.2957
- TLR7 reporter signal (Cpd-6 0.001 µM, log10[R848 (µM)] -2): -0.1404
- TLR7 reporter signal (Cpd-6 0.003 µM, log10[R848 (µM)] 0): 9.923
- TLR7 reporter signal (Cpd-6 0.003 µM, log10[R848 (µM)] 0.477121): 37.8265
- TLR7 reporter signal (Cpd-6 0.003 µM, log10[R848 (µM)] 1): 84.946
- TLR7 reporter signal (Cpd-6 0.003 µM, log10[R848 (µM)] 1.47712): 98.5645
- TLR7 reporter signal (Cpd-6 0.003 µM, log10[R848 (µM)] 2): 102.64
- TLR7 reporter signal (Cpd-6 0.003 µM, log10[R848 (µM)] 2.47712): 101.614
- TLR7 reporter signal (Cpd-6 0.003 µM, log10[R848 (µM)] 3): 100.614
- TLR7 reporter signal (Cpd-6 0.003 µM, log10[R848 (µM)] -0.522879): 0.6697
- TLR7 reporter signal (Cpd-6 0.003 µM, log10[R848 (µM)] -1): 0.7155
- TLR7 reporter signal (Cpd-6 0.003 µM, log10[R848 (µM)] -1.52288): 0.0547
- TLR7 reporter signal (Cpd-6 0.003 µM, log10[R848 (µM)] -2): -0.2513
- TLR7 reporter signal (Cpd-6 0.01 µM, log10[R848 (µM)] -2): -0.4139
- TLR7 reporter signal (Cpd-6 0.1 μM, log10[R848 (µM)] 0): 1.818
- TLR7 reporter signal (Cpd-6 0.1 μM, log10[R848 (µM)] 0.477121): 11.9813
- TLR7 reporter signal (Cpd-6 0.1 μM, log10[R848 (µM)] 1): 58.4894
- TLR7 reporter signal (Cpd-6 0.1 μM, log10[R848 (µM)] 1.47712): 91.4766
- TLR7 reporter signal (Cpd-6 0.1 μM, log10[R848 (µM)] 2): 100.668
- TLR7 reporter signal (Cpd-6 0.1 μM, log10[R848 (µM)] 2.47712): 102.716
- TLR7 reporter signal (Cpd-6 0.1 μM, log10[R848 (µM)] 3): 98.9371
- TLR7 reporter signal (Cpd-6 0.1 μM, log10[R848 (µM)] -0.522879): 0.03031
- TLR7 reporter signal (Cpd-6 0.1 μM, log10[R848 (µM)] -1): 0.4916
- TLR7 reporter signal (Cpd-6 0.1 μM, log10[R848 (µM)] -1.52288): 0.6438
- TLR7 reporter signal (Cpd-6 0.1 μM, log10[R848 (µM)] -2): -0.1471
- TLR7 reporter signal (Cpd-6 0.3 μM, log10[R848 (µM)] 0): 0.5455
- TLR7 reporter signal (Cpd-6 0.3 μM, log10[R848 (µM)] 0.477121): 4.006
- TLR7 reporter signal (Cpd-6 0.3 μM, log10[R848 (µM)] 1): 31.2508
- TLR7 reporter signal (Cpd-6 0.3 μM, log10[R848 (µM)] 1.47712): 73.4318
- TLR7 reporter signal (Cpd-6 0.3 μM, log10[R848 (µM)] 2): 95.1399
- TLR7 reporter signal (Cpd-6 0.3 μM, log10[R848 (µM)] 2.47712): 101.486
- TLR7 reporter signal (Cpd-6 0.3 μM, log10[R848 (µM)] 3): 99.1034
- TLR7 reporter signal (Cpd-6 0.3 μM, log10[R848 (µM)] -0.522879): -0.01626
- TLR7 reporter signal (Cpd-6 0.3 μM, log10[R848 (µM)] -1): 0.3371
- TLR7 reporter signal (Cpd-6 0.3 μM, log10[R848 (µM)] -1.52288): 0.2617
- TLR7 reporter signal (Cpd-6 0.3 μM, log10[R848 (µM)] -2): -0.3984
- TLR7 reporter signal (Cpd-6 1 μM, log10[R848 (µM)] 0): 0.1648
- TLR7 reporter signal (Cpd-6 1 μM, log10[R848 (µM)] 0.477121): 0.6756
- TLR7 reporter signal (Cpd-6 1 μM, log10[R848 (µM)] 1): 11.4786
- TLR7 reporter signal (Cpd-6 1 μM, log10[R848 (µM)] 1.47712): 45.6507
- TLR7 reporter signal (Cpd-6 1 μM, log10[R848 (µM)] 2): 84.5912
- TLR7 reporter signal (Cpd-6 1 μM, log10[R848 (µM)] 2.47712): 96.6131
- TLR7 reporter signal (Cpd-6 1 μM, log10[R848 (µM)] 3): 99.4242
- TLR7 reporter signal (Cpd-6 1 μM, log10[R848 (µM)] -0.522879): -0.03548
- TLR7 reporter signal (Cpd-6 1 μM, log10[R848 (µM)] -1): 0.7835
- TLR7 reporter signal (Cpd-6 1 μM, log10[R848 (µM)] -1.52288): 0.4073
- TLR7 reporter signal (Cpd-6 1 μM, log10[R848 (µM)] -2): -0.4287
- TLR7 reporter signal (Cpd-6 3 μM, log10[R848 (µM)] 0): -0.1671
- TLR7 reporter signal (Cpd-6 3 μM, log10[R848 (µM)] 0.477121): -0.3319
- TLR7 reporter signal (Cpd-6 3 μM, log10[R848 (µM)] 1): 1.145
- TLR7 reporter signal (Cpd-6 3 μM, log10[R848 (µM)] 1.47712): 10.9886
- TLR7 reporter signal (Cpd-6 3 μM, log10[R848 (µM)] 2): 45.7638
- TLR7 reporter signal (Cpd-6 3 μM, log10[R848 (µM)] 2.47712): 76.6561
- TLR7 reporter signal (Cpd-6 3 μM, log10[R848 (µM)] 3): 93.6623
- TLR7 reporter signal (Cpd-6 3 μM, log10[R848 (µM)] -0.522879): -0.0924
- TLR7 reporter signal (Cpd-6 3 μM, log10[R848 (µM)] -1): 0.3881
- TLR7 reporter signal (Cpd-6 3 μM, log10[R848 (µM)] -1.52288): 0.1811
- TLR7 reporter signal (Cpd-6 3 μM, log10[R848 (µM)] -2): -0.3984
- TLR7 reporter signal (Cpd-6 10 μM, log10[R848 (µM)] 0): -0.3585
- TLR7 reporter signal (Cpd-6 10 μM, log10[R848 (µM)] 0.477121): 0.00887
- TLR7 reporter signal (Cpd-6 10 μM, log10[R848 (µM)] 1): -0.3311
- TLR7 reporter signal (Cpd-6 10 μM, log10[R848 (µM)] 1.47712): 1.483
- TLR7 reporter signal (Cpd-6 10 μM, log10[R848 (µM)] 2): 7.633
- TLR7 reporter signal (Cpd-6 10 μM, log10[R848 (µM)] 2.47712): 30.5109
- TLR7 reporter signal (Cpd-6 10 μM, log10[R848 (µM)] 3): 70.7738
- TLR7 reporter signal (Cpd-6 10 μM, log10[R848 (µM)] -0.522879): 0.08501
- TLR7 reporter signal (Cpd-6 10 μM, log10[R848 (µM)] -1): 0.6054
- TLR7 reporter signal (Cpd-6 10 μM, log10[R848 (µM)] -1.52288): 0.5159
- TLR7 reporter signal (Cpd-6 10 μM, log10[R848 (µM)] -2): -0.6941
- TLR7 reporter signal (Cpd-6 30 μM, log10[R848 (µM)] 0): -0.8205
- TLR7 reporter signal (Cpd-6 30 μM, log10[R848 (µM)] 0.477121): -0.1671
- TLR7 reporter signal (Cpd-6 30 μM, log10[R848 (µM)] 1): -0.3932
- TLR7 reporter signal (Cpd-6 30 μM, log10[R848 (µM)] 1.47712): 0.7037
- TLR7 reporter signal (Cpd-6 30 μM, log10[R848 (µM)] 2): 0.5559
- TLR7 reporter signal (Cpd-6 30 μM, log10[R848 (µM)] 2.47712): 4.178
- TLR7 reporter signal (Cpd-6 30 μM, log10[R848 (µM)] 3): 28.3207
- TLR7 reporter signal (Cpd-6 30 μM, log10[R848 (µM)] -0.522879): -0.2084
- TLR7 reporter signal (Cpd-6 30 μM, log10[R848 (µM)] -1): 0.05618
- TLR7 reporter signal (Cpd-6 30 μM, log10[R848 (µM)] -1.52288): 0.1597
- TLR7 reporter signal (Cpd-6 30 μM, log10[R848 (µM)] -2): -0.9107
- TLR7 reporter signal (Cpd-6 100 μM, log10[R848 (µM)] 0): -0.4154
- TLR7 reporter signal (Cpd-6 100 μM, log10[R848 (µM)] 0.477121): -0.3459
- TLR7 reporter signal (Cpd-6 100 μM, log10[R848 (µM)] 1): -0.6712
- TLR7 reporter signal (Cpd-6 100 μM, log10[R848 (µM)] 1.47712): 0.8663
- TLR7 reporter signal (Cpd-6 100 μM, log10[R848 (µM)] 2): 0.5381
- TLR7 reporter signal (Cpd-6 100 μM, log10[R848 (µM)] 2.47712): 4.485
- TLR7 reporter signal (Cpd-6 100 μM, log10[R848 (µM)] 3): 25.5163
- TLR7 reporter signal (Cpd-6 100 μM, log10[R848 (µM)] -0.522879): -0.01478
- TLR7 reporter signal (Cpd-6 100 μM, log10[R848 (µM)] -1): 0.612
- TLR7 reporter signal (Cpd-6 100 μM, log10[R848 (µM)] -1.52288): 1.063
- TLR7 reporter signal (Cpd-6 100 μM, log10[R848 (µM)] -2): -0.5529
